The text below walks through data of EP2754453A1, “Conjugate of a cationic antimicrobial peptide and of a fatty acid for use as an anti-cancer agent” (UNIVERSITY COLLEGE DUBLIN, priority 2013, dated 2014).

Read-outs that look alike come from different tables or passages of the source.

Assay [1] concerns Human umbilical vein endothelial cells (HUVEC). The assay is described as follows: MTT cell viability assay (anti-proliferation activity). It counts as cell-based. The following applies: 48 h incubation, read-out: concentration at which 50% cell growth inhibition occurs (IC50). How it is done:
(§1) The colorectal cancer (HT-29), lung carcinoma (A549) and T-cell leukemia (Jurkat) cell lines were maintained as monolayer cultures in RPMI-1640 supplemented with 100 µg/ml streptomycin, 100 U/ml penicillin and 10% (v/v) foetal bovine serum (FBS) (all from Sigma, Ireland). Human glioma (SNB-19), human pancreatic carcinoma (MiaPaCa) and breast carcinoma (MDA-MB-231) cells were obtained from the American Type Culture Collection (ATCC) and maintained in Dulbecco's Modified Eagle's Medium (DMEM) supplemented with 100 µg/ml streptomycin, 100 U/ml penicillin, 2 mM L-glutamine, and 10% (v/v) FBS. The melanoma cell line (WM793) was originally isolated from a superficial spreading melanoma and maintained in DMEM, supplemented with 10% (v/v) FBS, 50 µg/ml gentamicin and 4 µg/ml insulin (Sigma, Ireland). HeLa cells were obtained from the ATCC and maintained in DMEM supplemented with 100 µg/ml streptomycin, 100 U/ml penicillin, 2 mM L-glutamine, 0.1 mM non-essential amino acids (NEAA, Sigma), and 10% (v/v) FBS. Human umbilical vein endothelial cells (HUVEC) cells were obtained from Cambrex and maintained in an endothelial cell growth medium (Lonza, Dublin Ireland). Human Dermal fibroblast (HDF) cells were obtained from the European Collection of Cell Culture (ECACC) and were maintained in DMEM supplemented with 100 µg/ml streptomycin, 100 U/ml penicillin, 2 mM L-glutamine, and 10% (v/v) FBS. All cells were grown in humidified atmosphere of 95% air and 5% CO2 at 37°C.
(§2) Reduction of MTT [(3-(4,5-dimethylthiazol-2-yl)-2,5-diphenyltetrazolium bromide] by cells was assessed colorimetrically as previously described. Assays were carried out after 48 h of cell incubation (72 h for combinational studies) in the media containing test compounds at concentrations ranging from 200 µM to 0.2 µM depending upon compounds being tested.

Another assay concerns Human glioma (SNB-19). The assay is described as above. It counts as cell-based. The note with it: SNB-19, 48 h incubation; read-out: concentration at which 50% cell growth inhibition occurs (IC50). How it is done:
as §1, §2

Assay [2] deals with human pancreatic carcinoma (MiaPaCa). The description is as above. It counts as cell-based. The following applies: 48 h incubation, read-out: concentration at which 50% cell growth inhibition occurs (IC50). Here is the method:
as §1, §2

Assay [3] deals with melanoma cell line (WM793). Described as above. It counts as cell-based, human. The note with it: WM793, 48 h incubation; read-out: concentration at which 50% cell growth inhibition occurs (IC50). Here is the method: as §1, §2
The next assay relates to HeLa cells. The assay is described as above. It counts as cell-based, human. Here is the method:
as §1, §2

Assay [4] relates to breast carcinoma (MDA-MB-231) cells. Described as above. The following applies: 48 h incubation, read-out: concentration at which 50% cell growth inhibition occurs (IC50). It counts as cell-based, human. Here is the method:
as §1, §2

Assay [5] deals with colorectal cancer (HT-29). Described as above. It counts as cell-based, human. The following applies: HT-29, 48 h incubation; read-out: concentration at which 50% cell growth inhibition occurs (IC50). How it is done: as §1, §2
The test system of assay [6] is Human Dermal fibroblast (HDF) cells. The assay is described as above. Type of assay: cell-based. The note with it: 48 h incubation, read-out: concentration at which 50% cell growth inhibition occurs (IC50). How it is done: as §1, §2
The subject of another assay is T-cell leukemia (Jurkat). The assay is described as above. It counts as cell-based, human. The note with it: 48 h incubation, read-out: concentration at which 50% cell growth inhibition occurs (IC50). Here is the method:
as §1, §2

Another assay has as its system lung carcinoma (A549). Described as above. Type of assay: cell-based, human. The following applies: A549, 48 h incubation; read-out: concentration at which 50% cell growth inhibition occurs (IC50). Here is the method:
as §1, §2

The test system of a further assay is Jurkat. The following applies: cited from earlier work.
For the next assay, the system named is MDA-MB-231. The note with it: cited from earlier work.
Another assay has as its system HeLa. The assay is described as follows: Western blot analysis of apoptosis markers. Type of assay: cell-based, human. The following applies: Fig. 5A. How it is done:
(§3) Cells were lyzed and protein levels determined using the bicinchoninic acid method (Pierce, Rockford, IL). Protein samples were separated by SDS-PAGE under reducing conditions. Resolved proteins were transferred to methanol-activated polyvinylidenedifluoride (PVDF) membrane (Millipore, Bedford, MA, USA and blocked in 5% (w/v) bovine serum albumin for 1 h at room temperature. Primary antibody was applied to membranes overnight at 4°C (anti-cleaved Caspase 3, 8, 9 and poly ADP-ribose polymerase (PARP), (1:1000 dilution; Cell Signaling Technology, Danvers, USA). Chemiluminescent signal was detected using the Fluorchem FC2 Imaging System (Alpha Innotech, Switzerland). Membranes were stripped and reprobed with anti-β-actin antibodies (1:1000 dilution; Santa-Cruz Biotechnology, Santa Cruz, USA) so as to provide loading control.
In general terms: A western blot detects proteins with antibodies after separation by electrophoresis.

In another assay the test system is MiaPaCa. The assay can be described thus: Western blot analysis of apoptosis markers. It counts as cell-based, human. The following applies: Fig. 5B. How it is done:
as §3

The mark [7] stands for this setting: HeLa, 48 h incubation, read-out: concentration at which 50% cell growth inhibition occurs (IC50).

For “Kwklfkkipkflhlakkf (SEQ ID NO: 2) [DP18]”, the IC50 in assay [1] worked out at 100 ± 9 µM; in the assay on Human glioma (SNB-19), 18.6 ± 1.5 µM; in assay [2], 18.9 ± 1.5 µM; in assay [3], 22.8 ± 0.8 µM; in the assay on HeLa cells (setting [7]), 18 ± 0.4 µM; in assay [4] it was 18.6 ± 0.8 µM. The IC50 in [5] amounted to 17.5 ± 0.5 µM.
Turning to R10-kwklfkklpkflhlakkf [R10DP18L], the IC50 in assay [6] is 7.9 ± 0.4 µM; in [1], 9.2 ± 0.8 µM; with T-cell leukemia (Jurkat), 3 ± 0.5 µM; with HeLa cells (HeLa cells, concentration used in uptake study of biotinylated peptides (Fig. 3A), read-out: approximately the IC50 value), ~2.4 µM; in the assay on HeLa cells (setting [7]), 2.8 ± 0.3 µM; in [4] it was 3.1 ± 0.8 µM. For the same substance, the IC50 in the assay on lung carcinoma (A549) was found to be 2.5 ± 0.7 µM.
In the case of C10-kwklfkklpkflhlakkf [C10DP18L], the IC50 was determined as 4.3 ± 0.9 µM in the assay on Human glioma (SNB-19), 5 ± 1.5 µM in assay [2], 3.8 ± 0.4 µM in the assay on T-cell leukemia (Jurkat) and 3 ± 0.1 µM in the assay on HeLa cells (setting [7]).
On to KWKLFKKIPKFLHLAKKF [P18], for which the cytotoxic activity entry in the assay with Jurkat and in the assay with MDA-MB-231 was “displays cytotoxic activity” each time.
Regarding “Kwklfkklpkflhlakkf (SEQ ID NO: 1) [DP18L]”, the “Caspase 8” value in the assay with HeLa and in the assay on MiaPaCa was “not detected at significant levels” throughout. The “apoptotic cell death (activation of caspase 3, 9 and the caspase substrate PARP)” value with HeLa and with MiaPaCa was “induces apoptotic cell death” throughout. In addition, the IC50 was determined as 140 ± 18 µM in [1]; 27.3 ± 1.8 µM in the assay on Human glioma (SNB-19); 13.9 ± 0.6 µM in assay [2]; 18.7 ± 3 µM in assay [3]; 4.2 ± 0.6 µM in the assay with T-cell leukemia (Jurkat); 12.7 ± 1.2 µM in the assay on HeLa cells (setting [7]). For the same substance, the IC50 in assay [4] was determined as 13.4 ± 2.4 µM; in assay [5], 18.3 ± 0.9 µM.
